From patent publication US20050148034A1, “Methods for identification of modulators of angiogenesis, compounds discovered thereby, and methods of treatment using the compounds” (priority 2002, published 2005)

Columns and labels:
[1] = tested on: embryonic-like stem cells derived from placenta; test: Marker expression of cultured embryonic-like stem cells (staining score, Table 2); type: cell-based, human; design: key to SMC-specific Myosin HC / GFAP / CD34+ / CD45+: −: no staining; +/−: <20% staining; +: 20-50% staining; ++: 50-75% staining; +++: >75% staining; settings: for CD34+ / CD45+ / GFAP / Nestin / SMC-specific Myosin HC: placental conditioned media, fourteen days of culture; for numbers of cells expressing CD34, CD45 and smooth muscle cell (SMC)-specific myosin heavy chain / numbers of cells expressing nestin and glial fibrillary acidic protein (GFAP): summary of Table 2
Description: The following experiments evaluated the effects of Thalomid™, Actimid™ and Revimid™ on the morphological differentiation of embryonic-like stem cells derived from placenta. The morphological differentiation of cultured embryonic-like stem cells was evaluated after fourteen days of culture in the presence of placental conditioned medium and with DMSO (control), EGCF, Thalomid™, Actimid™ or Revimid™.
Embryonic-like stem cells were isolated from placenta as described above in Section 5.4. The embryonic-like stem cells were cultured using the culture conditions described above.
(§1) The cells were scored for the expression of CD34 (a marker of early hematopoietic progenitor cells; also an endothelial cell marker), CD45 (a marker of all hematopoietic cells except erythrocytes), CD105 (a marker of proliferating endothelial cells), smooth muscle cell (SMC)-specific myosin heavy chain, nestin ([…]), and glial fibrillary acidic protein (GFAP). Ratios of CD34 cells/TNC (Total Number of Cells), CD45 cells/TNC and CD105 cells/TNC were also determined.
In Table 2, the scoring was as follows: • −: no staining; +/−: <20% staining+: 20-50% staining; ++: 50-75% staining; +++: >75% staining.

[2] = tested on: embryonic-like stem cells derived from placenta; test: Immunostaining for CD34, CD45 and CD105 in cultured placental stem cells (ratios to TNC, Table 3); type: cell-based, human; settings: for CD34/TNC / CD45/TNC / CD105/TNC: placental conditioned media, 1 μg/ml, 14 days in culture; for numbers of cells expressing CD34, CD45 and CD 105: summary of Table 3
Description: as §1
In another experiment, the results of which are summarized in Table 3, embryonic-like stem cells derived from placenta were cultured, using the conditions described in the umbilical vessel ring assay described above, in the presence of placenta-conditioned medium with DMSO (negative control), Thalomid™, Actimid™ or Revimid™. After 14 days in culture, the cells were then immunostained for expression of CD34+, CD45+ and CD 105+.

[3] = tested on: embryonic-like stem cells derived from placenta; test: Total vessel area/field and branching/bifurcation of cultured placental embryonic-like stem cells (Table 4); type: cell-based, human; design: key to Branching/Bifurcation (+/−): +: a branch or bifurcation was observed; −: no branch or bifurcation was observed; settings: for branching and/or bifurcation exhibited by the cells / total vessel area/field covered by the cells: summary of Table 4
Description: In another experiment, the results of which are summarized in Table 4, embryonic-like stem cells derived from placenta were cultured, using the culture conditions described above, and in the presence of EGCF, DMSO, Thalomid™, Actimid™ or Revimid™.
A “+” means that a branch or bifurcation was observed and a “−” means that no branch or bifurcation was observed. […] See also FIGS. 3A, 3B

rat aortic rings = test: Rat aortic angiogenesis assay; type: cell-based, Sprague Dawley rats; settings: for mean microvessel growth (% of control): without microsomes
Description: Twelve well tissue culture grade plates were covered with 250 μl of Matrigel and allowed to gel for 30-45 min at 370 C, 5% Co2. Thoracic aortas were excised from eight to ten week old male Sprague Dawley rats and the fibroadipose tissue was removed. The aortas were sectioned into 1 mm long sections, rinsed eight times with EGM-2 (Clonetics Corp), placed on the Matrigel coated wells, covered with additional 250 μl Matrigel, and allowed to gel for 30-45 min at 370 C. The rings were cultured for 24 hours in 2 ml of EGM-2. After 24 hours, recombinant murine endostatin was reconstituted in EBM and added as a single treatment on day 1. Thalidomide was added at different concentrations (1 μg/ml, 5 μg/ml, 10 μg/ml, 50 μg/ml and 100 μg/ml) in the presence or absence of rabbit microsomes as noted in the Table 5. Aortic rings were photographed on days.

[4] = tested on: human umbilical cord vessel rings; test: Human angiogenesis assay (umbilical artery vessel rings in Matrigel); type: cell-based; settings: for Microvessel Growth (% Inhibition): vs 0.1% DMSO, three weeks, average of two rings
From the text: Fresh human umbilical cords were collected by trained medical personnel under fill donor informed consent from local hospitals. The cords were transported and treated within three hours. Umbilical cords and vessel lumens were rinsed with chilled basal nutrient medium. The artery was removed from the cord using mechanical means, forceps and small surgical scissors in an aseptic field. The vessel was cleaned of connective tissue and vessel rings were cut cross-wise in a length of 1 mm. The rings were placed into EGM-2 medium (Clonetics Corp.) in a 50 ml conical bottom tube and stored at 4° C. Six-well tissue culture plates were covered with […] of Matrigel and allowed to gel for 30-45 min at 37° C., under 5% CO2. The vessel rings were rinsed in EGM-2 medium and placed on the Matrigel-coated wells, covered with additional 250 μl Matrigel, and allowed to gel for 30-45 min at 37° C. (see FIG. 6). The vessels were cultured for 24 hours in 4 ml of EGM-2 to allow the tissue to adapt to its new environment. After 24 hours incubation, the rings were treated either with 0.1% DMSO as control, or different concentrations of compounds (thalidomide or CC4047). Culture medium was changed twice per week for total of three weeks.
The effects of compounds on cultured vessel rings were compared with the effect of DMSO on vessel rings. The results were analyzed using Image-Pro® Plus software (MediaCybernetics, Inc. Carlsbad, Calif.).
These experiments were done in duplicates and the results are the average of two rings in same experiment. A different concentration of Fumagillin is used as positive control in this experiment.

[5] = tested on: human umbilical cord blood vessel rings; test: Umbilical cord blood vessel ring angiogenesis assay (validation with known modulators); type: cell-based
Description: Blood vessels, approximately 1-2 mm in diameter and 1-2 cm in length, were excised from human umbilical cord within 12 hours of birth. Both arterial and venous tissue were harvested and maintained separately. The vessels were placed in DMEM containing 2.5 μg/ml of fungizone and cut into 1-2 mm length fragments using fine dissecting forceps and iridectomy scissors. Vessel fragments were freed of residual clots and soaked in DMEM before use. Dissecting and sectioning of vessels were performed with the aid of a surgical microscope. Similar angiogenic responses were obtained from blood vessels of venular and arterial origin but for each assay, vessel fragments from only one vessel were used. See FIG. 6 for a graphic depiction of the assay setu.
Assays were performed in petri dishes (10 to 25 cm^2) or 6-well culture plates (Costar, Cambridge, Mass.), which were prepared by pre-coating with either 0.1% gelatin (Sigma, St. Louis, Mo.) or MATRIGEL® (BD Biosciences) to form a matrix. Following the coating of the plates, 50 μl of human cord blood plasma in 5 mL of DMEM were added to each dish/well to form a surface film over the matrix. The film was allowed to set at 37° C. for 90 minutes, after which it was removed, leaving a thin film in each dish/well. Vessel ring segments were then positioned at central locations within the plate or dish. Petri dishes were divided into quarters, and vessel ring segments were placed in the center of each of the quadrants. In the case of 6-well culture plates, a vessel ring segment was placed in each of the wells. Vessel ring segments generally adhered to the coated matrix within 12 hours, allowing for the addition of media without risk of detachment due to buoyancy. […]
Test compounds were administered at the beginning of culture, once the adherent stem cells were selected, or once the vessel rings are determined to have adhered to the matrix. Each test compound is evaluated at various concentrations to enable generation of a dose response analysis. […]
Vessel outgrowth was scored as a quantitative comparison to the positive and negative controls, using the following notations: − negative; +/− minimally above negative control; + low level of outgrowth; ++ moderate level of outgrowth; +++ high level of outgrowth; ++++ positive control level of outgrowth. Vessel outgrowth was also scored morphometrically as the maximal distance of vessel sprout growth in microns from the vessel ring, and as the total area of endothelial cell coverage (ECA)/area of vessel ring (VRA).
Following culture for 14-21 days, as described above, angiogenesis was quantified and compared with control cultures. […]

Compound: Nc1cccc2c1C(=O)N(C1CCC(=O)NC1=O)C2=O (stereo not shown) [Actimid, 4-(Amino)-2-(2,6-dioxo(3-piperidyl))-isoindoline-1,3-dione]
- CD34+ ([1]; 1 μg/mL): −
- CD45+ ([1]; 1 μg/mL): −
- GFAP ([1]; 1 μg/mL): −
- Nestin ([1]; 1 μg/mL): ++ (50-75% staining)
- SMC-specific Myosin HC ([1]; 1 μg/mL): −
- CD34+ ([1]; 10 μg/mL): −
- CD45+ ([1]; 10 μg/mL): −
- GFAP ([1]; 10 μg/mL): + (20-50% staining)
- Nestin ([1]; 10 μg/mL): +++ (>75% staining)
- SMC-specific Myosin HC ([1]; 10 μg/mL): −
- numbers of cells expressing CD34, CD45 and smooth muscle cell (SMC)-specific myosin heavy chain [1]: decreased
- numbers of cells expressing nestin and glial fibrillary acidic protein (GFAP) [1]: increased
- CD34/TNC [2]: 0.04
- CD45/TNC [2]: 0.94
- CD105/TNC [2]: 26.3
- numbers of cells expressing CD34, CD45 and CD 105 [2]: decrease
- Branching/Bifurcation (+/−) ([3]; 1 μg/ml): −
- Total Vessel Area/Field (% Coverage) ([3]; 1 μg/ml): 11.3 +/− 2.8 % Coverage
- Branching/Bifurcation (+/−) ([3]; 10 μg/ml): −
- Total Vessel Area/Field (% Coverage) ([3]; 10 μg/ml): 6.7 +/− 4.1 % Coverage
- branching and/or bifurcation exhibited by the cells [3]: decreases the branching and/or bifurcation exhibited by the cells
- total vessel area/field covered by the cells [3]: decrease in the total vessel area/field covered by the cells
- mean microvessel growth (% of control) (rat aortic rings; 10 μg/ml): 14.2 % of control
- mean microvessel growth (% of control) (rat aortic rings; 100 μg/ml): 0.00 % of control
- need of rabbit microsomes for inhibition of vessel formation (rat aortic rings; summary of Table 5): did not require microsomes for inhibition of vessel formation
- Microvessel Growth (% Inhibition) ([4]; 0..1 μM): 50.1 % Inhibition
- Microvessel Growth (% Inhibition) ([4]; 1 μM): 85 % Inhibition
- Microvessel Growth (% Inhibition) ([4]; 10 μM): 100 % Inhibition
- formation of microvessel outgrowth ([4]; compared with DMSO treated samples): inhibited the formation of microvessel outgrowth in a dose dependent manner

Compound: Nc1cccc2c1CN(C1CCC(=O)NC1=O)C2=O (stereo not shown) [Revimid, 3-(4-amino-1-oxo-1,3-dihydro-isoindol-2-yl)-piperidine-2,6-dione]
- CD34+ ([1]; 1 μg/mL): −
- CD45+ ([1]; 1 μg/mL): −
- GFAP ([1]; 1 μg/mL): + (20-50% staining)
- Nestin ([1]; 1 μg/mL): + (20-50% staining)
- SMC-specific Myosin HC ([1]; 1 μg/mL): −
- CD34+ ([1]; 10 μg/mL): −
- CD45+ ([1]; 10 μg/mL): −
- GFAP ([1]; 10 μg/mL): +++ (>75% staining)
- Nestin ([1]; 10 μg/mL): ++ (50-75% staining)
- SMC-specific Myosin HC ([1]; 10 μg/mL): −
- numbers of cells expressing CD34, CD45 and smooth muscle cell (SMC)-specific myosin heavy chain [1]: decreased
- numbers of cells expressing nestin and glial fibrillary acidic protein (GFAP) [1]: increased
- CD34/TNC [2]: .22
- CD45/TNC [2]: 1.71
- CD105/TNC [2]: 17.3
- numbers of cells expressing CD34, CD45 and CD 105 [2]: decrease
- Branching/Bifurcation (+/−) ([3]; 1 μg/ml): −
- Total Vessel Area/Field (% Coverage) ([3]; 1 μg/ml): 13.5 +/− 7.7 % Coverage
- Branching/Bifurcation (+/−) ([3]; 10 μg/ml): −
- Total Vessel Area/Field (% Coverage) ([3]; 10 μg/ml): 12.1 +/− 7.4 % Coverage
- branching and/or bifurcation exhibited by the cells [3]: decreases the branching and/or bifurcation exhibited by the cells
- total vessel area/field covered by the cells [3]: decrease in the total vessel area/field covered by the cells

Compound: Cc1ccc(C(=O)Nc2ccc(S(=O)(=O)O)c3cc(S(=O)(=O)O)cc(S(=O)(=O)O)c23)cc1NC(=O)c1cccc(NC(=O)Nc2cccc(C(=O)Nc3cc(C(=O)Nc4ccc(S(=O)(=O)O)c5cc(S(=O)(=O)O)cc(S(=O)(=O)O)c45)ccc3C)c2)c1 [suramin]
- inhibition of angiogenesis ([5]; 10 μg/ml): the inhibitory activity of this compound is lost
- inhibition of angiogenesis ([5]; 100 μg/ml): virtually totally inhibited angiogenesis

Compound: heparin
- inhibition of angiogenesis ([5]; 100 μg/ml): small but significant inhibition of angiogenesis

Compound: low molecular weight heparin
- inhibition of angiogenesis ([5]; 100 μg/ml): small but significant inhibition of angiogenesis
